Results on 6 compounds are retold here after PubChem BioAssay (NCI).

What all share (experiment): NCI tumour cell line growth inhibition, 48 h
Experiment [1] concerns DLD-1 colon.
The test system of experiment [2] is LXFL 529 NSCLC.
For experiment [3], the system named is DMS 273 small cell lung.
Experiment [4] has as its system SNB-78 CNS.
The subject of experiment [5] is M19-MEL melanoma.
Experiment [6] has as its system KM20L2 colon.
Experiment [7] concerns P388/ADR leukemia.
For experiment [8], the system named is P388 leukemia.
Experiment [9] relates to SN12K1 renal.
For experiment [10], the system named is DMS 114 small cell lung.

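Dose response: 5 concentrations. Exposure: 48 h. Format: 96-well plates. Endpoint: linear interpolation; highest concentration if not reached. The concentration for 50% growth inhibition is given as GI50. TGI is the concentration that stops growth completely.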

Consider `CCN(CC)CCNc1ccc2ncn3c4ccc(O)cc4c(=O)c1c23`, for which the TGI came to 15.1 µM in [1]; 17.6 µM in experiment [2]; 12.5 µM in experiment [3]; 17.6 µM in experiment [4]; 17.1 µM in experiment [5]; 14.9 µM in experiment [6].

Turning to `C=C(C#N)C(=O)OCC(CC)CC.C=C(C#N)C(=O)OCC(CC)CC.CS(C)=O.CS(C)=O.Nc1c(N=Nc2ccc(-c3ccc(N=Nc4cc(S(=O)(=O)[O-])c5ccccc5c4N)cc3)cc2)cc(S(=O)(=O)[O-])c2ccccc12.[Pt+2]`, the GI50 is 28.2 µM in experiment [1]; 27.2 µM in experiment [7]; 40.4 µM in experiment [3]; 29.6 µM in experiment [8]; 38.8 µM in experiment [4]; over 100 µM in experiment [6]. For the same compound, the GI50 in experiment [9] is 19.7 µM. Moreover, the TGI was over 77.8 µM in [1]; over 100 µM in [7]; over 100 µM in experiment [3]; over 100 µM in [8]; over 95.6 µM in experiment [4]; over 100 µM in experiment [6]. This compound showed a TGI in experiment [9] of 40.1 µM.

As to `C=CCNC(=O)C(C)C1CCC2(C)C=CC(=O)C(C)=C2C1O` (centres undefined), the TGI was over 100 µM in experiment [1]; over 100 µM in experiment [7]; over 100 µM in [3]; over 100 µM in experiment [8]; over 89.1 µM in experiment [4]; over 100 µM in experiment [10]. Besides, the TGI in experiment [5], in experiment [6] and in experiment [9] was over 100 µM each time.

With `COc1ccc2nc3cc(Cl)ccc3c(NC(C)CCCN(CCCl)CCCl)c2c1` (centres undefined), the TGI in experiment [1] stood at 4.1 µM; in experiment [2], 2.5 µM; in [3], 2.27 µM; in [4], 7.38 µM; in [10], 11.4 µM; in experiment [5], 8.78 µM. This compound also returned a TGI in experiment [6] of 5.73 µM.

Regarding `O=C1c2ccccc2C(=O)c2[nH]cnc21`, the TGI in experiment [1] was over 100 µM; in experiment [3], over 100 µM; in experiment [4], over 100 µM; in experiment [10], 86.9 µM; in experiment [5], 40.6 µM.

Regarding `O=C1C(Cl)N(c2ccccc2Cl)C1c1c[nH]c2ccccc12` (centres undefined), the TGI in experiment [10], in [5] and in experiment [6] was over 100 µM in each case.
